Values quoted from earlier work, collected in patent publication US20050240051A1, “Dispersing agent or solubilizing agent containing calixarene compound” (Ajinomoto Co., Inc., priority 2002, published 2005).

SMILES: c12c3c4c5c1c1c6c7c2c2c8c3c3c9c4c4c%10c5c5c1c1c6c6c%11c7c2c2c7c8c3c3c8c9c4c4c9c%10c5c5c1c1c6c6c%11c2c2c7c3c3c8c4c4c9c5c1c1c6c2c3c41 [fullerene]
- solubility in hydrocarbon solvents and alcohol solvents: not more than 0.1 mg/ml
- solubility in toluene: about 3 mg/ml
- solubility in 1-methylnaphthalene (at around normal temperature): about 33 mg/ml
